Data as given in patent publication US8841414B1, “Targeted delivery of therapeutic peptides by thermally responsive biopolymers” (University of Mississippi Medical Center, priority 2006, dated 2014).
Where two headings read alike, the source gives them in different places.

What was measured:
MCF-7 cells [1] = test: Drug IC50 with and without polypeptide pretreatment (MTS cell viability assay); assay type: cell-based; conditions: for IC50: Homo sapiens, MCF7
Protocol: The effect of drug concentration on cell viability for Dox (A) or etoposide (B) was determined with and without Pen-ELP-H1 pretreatment. Cells were pretreated on day 1 with 20 μM Pen-ELP-H1 and treated on day 4 with drug. Viability was determined on day 7 using the MTS cell viability assay. A single representative experiment is shown (error bars=SD).
The ability of Pen-ELP-H1 to enhance the effectiveness of chemotherapeutic agents was tested in MCF-7 breast cancer cells. Cells were treated on day 1 with 20 μM Pen-ELP-H1 or a control polypeptide which lacks the c-Myc inhibitory sequence (Pen-ELP) for 1 h, rinsed, and placed in fresh media for 3 days. On day 4, the cells were exposed to the drugs at various concentrations for 72 h, and viability was assessed using the MTS cell viability assay. […] Data from the MTS assay was averaged and fit using an exponential equation in order to calculate the IC50 with and without pretreatment.
Table 3. […] Statistical significance was assessed using an unpaired Student's t-test.

MCF-7 cells [2] = test: Dox/etoposide toxicity after pretreatment with DFMO and/or Pen-ELP-H1 (MTS); assay type: cell-based; conditions: then Dox 750 nM for 72 h
Protocol: FIG. 33-1 is a set of graphs that show proliferation with DFMO and Dox or Etoposide. Cells were pretreated with 20 μM Pen-ELP-H1 or 50 μM DFMO on day 1, and treated with 750 nM Dox (A) or 200 μM etoposide (B) on day 4. Cell viability was determined on day 7 using the MTS cell viability assay. Results represent the mean±SEM of 3 independent experiments.
As a transcription factor, c-Myc influences the transcription levels of a large variety of genes. One of the genes under c-Myc control encodes the enzyme ODC (140). ODC catalyzes the first and rate-limiting step in the synthesis of cellular polyamines (148). […] Above, it was shown that interruption of the c-Myc/Max heterodimer by the Pen-ELP-H1 polypeptide caused a reduction in the steady-state levels of ODC mRNA to less than 40% of control levels (93). This observation led to the hypothesis that modulation of Dox and etoposide toxicity may be due to a reduction in the amount of ODC in the cell. In order to test this hypothesis, a combination of pretreatment with the ODC inhibitor DFMO and/or Pen-ELP-H1 was used in the Dox and etoposide toxicity assay. MCF-7 cells were pretreated with Pen-ELP-H1 (20 μM), DFMO (50 μM), or both before a 72 h exposure to Dox (750 nM) or etoposide (200 μM). […] Similar results were obtained with Pen-ELP-H1 and/or DFMO combined with etoposide (FIG. 33-1 B).

HeLa cells = test: Drug IC50 with and without Pen-ELP-H1 pretreatment; assay type: cell-based, human; conditions: for IC50: Homo sapiens
Protocol: (§1) Table 4. IC50 values were collected for HeLa and MES-SA cells. The Dox and etoposide IC50 was determined with and without Pen-ELP-H1 pretreatment. Curves were fit using an exponential equation, and the IC50 value shown represents the mean±SEM of at least 5 independent determinations each performed with 4 replicates per drug concentration. Statistical significance was assessed using an unpaired Student's t-test.

MES-SA cells = test: Drug IC50 with and without Pen-ELP-H1 pretreatment; assay type: cell-based; conditions: for IC50: Homo sapiens
Protocol: as §1

MCF-7 cells [3] = test: Cell cycle distribution by BrdU and propidium iodide flow cytometry; assay type: cell-based; conditions: for G1 fraction / S phase fraction: day 5; for effect on cell cycle distribution: agent alone (Pen-ELP-H1 20 μM, Dox 100 nM, etoposide 1 μM)
Protocol: FIG. 31 is a set of graphs that show cell cycle analysis of MCF-7 Cells after Pen-ELP-H1 Pretreatment before Dox or Etoposide. A. Cells were pretreated with 20 μM Pen-ELP-H1 on day 1 and 100 nM Dox or 1 μM etoposide on day 4 and analyzed on day 5 by flow cytometry with BrdU and propidium iodide staining Raw data for a single representative experiment is shown. 4 independent experiments with Dox (B) and etoposide (C) were averaged. Percentages were determined by analysis of 5000 cells/sample, and results shown represent the mean±SEM.
To gain more insight into the effect of polypeptide and drug treatment, the cell cycle distribution of MCF-7 cells was examined. Cells were treated as above with 20 μM Pen-ELP-H1 on day 1 and Dox (100 nM) or etoposide (1 μM) on day 4. On day 5, the cells were pulsed with BrdU and stained with propidium iodide for flow cytometric analysis of the cell cycle distribution. BrdU was used to accurately estimate the fraction of cells in S-phase, and this was combined with propidium iodide staining to denote each phase of the cell cycle (FIG. 31A). […] The pattern observed with Dox was enhanced upon pretreatment with Pen-ELP-H1, where the G1 fraction increased from about 48% to 53%, and the S phase fraction was reduced from 8% to 5% as compared to treatment with Dox alone (FIG. 31B).

Panc-1 cells = test: Panc-1 proliferation with 5-FU alone or after Bac7-ELP1-p21 pretreatment (MTS); assay type: cell-based, human
Protocol: Panc-1 cells were treated for 72 h with 5-F-U with or without pre-treatment with Bac7-ELP1-p21 for 1 hr at 42° C. Cell proliferation was assessed by the MTS assay. Bars, SEM of 3 experiments.
Resistance to Current Chemotherapeutic Agents: One of the therapeutic agents currently used in the clinical setting for pancreatic cancer is 5-Fluorouracil (5-FU).

c-Myc = c-Myc (UniProt P01106); test: cell-based or functional assay
[4] = 20 μM Pen-ELP on day 1, drug on day 4 for 72 h, read-out: IC50 after Pen-ELP pretreatment (mean ± SEM)
[5] = 20 μM Pen-ELP-H1 on day 1, drug on day 4 for 72 h, read-out: IC50 after Pen-ELP-H1 pretreatment (mean ± SEM)
[6] = no pretreatment, 72 h drug exposure, read-out: IC50 (mean ± SEM)
[7] = no pretreatment, read-out: IC50 (mean ± SEM)
[8] = read-out: IC50 after Pen-ELP-H1 pretreatment (mean ± SEM)
[9] = Dox 100 nM after 20 μM Pen-ELP-H1 pretreatment

Sequence of UniProt P01106 (P01106 whole entry): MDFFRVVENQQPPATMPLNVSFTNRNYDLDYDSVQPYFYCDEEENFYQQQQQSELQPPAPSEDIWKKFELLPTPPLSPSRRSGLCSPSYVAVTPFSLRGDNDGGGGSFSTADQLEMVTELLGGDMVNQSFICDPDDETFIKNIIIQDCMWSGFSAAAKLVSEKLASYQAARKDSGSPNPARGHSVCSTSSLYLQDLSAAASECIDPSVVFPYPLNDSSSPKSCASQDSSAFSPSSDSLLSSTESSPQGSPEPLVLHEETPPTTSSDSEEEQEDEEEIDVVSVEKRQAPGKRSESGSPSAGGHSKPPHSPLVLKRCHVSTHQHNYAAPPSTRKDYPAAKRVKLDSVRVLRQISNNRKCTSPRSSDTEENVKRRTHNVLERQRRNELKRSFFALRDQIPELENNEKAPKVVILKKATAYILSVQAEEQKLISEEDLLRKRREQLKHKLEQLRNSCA

| Compound | IC50 (MCF-7 cells [1]; [4]) | IC50 (MCF-7 cells [1]; [5]) | IC50 (MCF-7 cells [1]; [6]) | reduction in IC50 with Pen-ELP-H1 pretreatment (MCF-7 cells [1]; MCF-7) | reduction of IC50 by Pen-ELP-H1 pretreatment (HeLa cells) | IC50 (HeLa cells; [7]) | IC50 (HeLa cells; [8]) | reduction of IC50 by Pen-ELP-H1 pretreatment (MES-SA cells) | IC50 (MES-SA cells; [7]) | IC50 (MES-SA cells; [8]) | effect on cell cycle distribution (MCF-7 cells [3]) | also measured |
| --- | --- | --- | --- | --- | --- | --- | --- | --- | --- | --- | --- | --- |
| CC[C@@]1(O)C(=O)OCc2c1cc1n(c2=O)Cc2cc3ccccc3nc2-1 [Camptothecin] | 229 ± 46.4 nM | 235 ± 5.8 nM | 235 ± 9.8 nM | – | – | – | – | – | – | – | – | effect of Pen-ELP-H1 or Pen-ELP pretreatment on cell killing by the drug (MCF-7 cells [1]; MCF-7): no significant effect |
| NCCC[C@](N)(C(=O)O)C(F)F [DFMO, α-difluoromethylornithine] | – | – | – | – | – | – | – | – | – | – | – | enhancement of Dox-induced cell killing by pretreatment (MCF-7 cells [2]; Pen-ELP-H1 20 μM or DFMO 50 μM): enhanced the Dox-induced cell killing by similar amounts; enhancement of Dox toxicity by pretreatment with the combination of Pen-ELP-H1 and DFMO (MCF-7 cells [2]; Pen-ELP-H1 20 μM plus DFMO 50 μM): no greater enhancement of Dox toxicity than either agent used alone |
| O=c1[nH]cc(F)c(=O)[nH]1 [5-FU, 5-Fluorouracil] | – | – | – | – | – | – | – | – | – | – | – | sensitivity of Panc-1 cells to treatment (Panc-1 cells; 72 h): highly resistant; effect of increasing the concentration on cell proliferation (Panc-1 cells; beyond 10 μM, 72 h): no increasing effect on cell proliferation; cell proliferation after pretreatment with Bac7-ELP1-p21 (Panc-1 cells; pretreated 1 h at 42° C. with Bac7-ELP1-p21, then 5-FU 72 h): dramatically reduced |
| Pen-ELP1-H1 | – | – | – | – | – | – | – | – | – | – | – | steady-state levels of ODC mRNA (% of control levels) (c-Myc): < 40 |

The next lines start with results.

| IC50 (MCF-7 cells [1]; [4]) | IC50 (MCF-7 cells [1]; [5]) | IC50 (MCF-7 cells [1]; [6]) | reduction in IC50 with Pen-ELP-H1 pretreatment (MCF-7 cells [1]; MCF-7) | reduction of IC50 by Pen-ELP-H1 pretreatment (HeLa cells) | IC50 (HeLa cells; [7]) | IC50 (HeLa cells; [8]) | reduction of IC50 by Pen-ELP-H1 pretreatment (MES-SA cells) | IC50 (MES-SA cells; [7]) | IC50 (MES-SA cells; [8]) | Compound | effect on cell cycle distribution (MCF-7 cells [3]) | also measured |
| --- | --- | --- | --- | --- | --- | --- | --- | --- | --- | --- | --- | --- |
| 777 ± 75.1 nM | 504 ± 35.3 nM | 752 ± 21.6 nM | about 1.5 fold | 1.5 fold | 13.9 ± 1.3 nM | 9.4 ± 1.2 nM | 2 fold | 33.7 ± 7.1 nM | 16.3 ± 1.6 nM | COc1cccc2c1C(=O)c1c(O)c3c(c(O)c1C2=O)C[C@@](O)(C(=O)CO)C[C@@H]3O[C@H]1C[C@H](N)[C@H](O)[C@H](C)O1 [Doxorubicin] | arrest in G1 and G2/M at the expense of S phase | G1 fraction (MCF-7 cells [3]; [9]): 53%; S phase fraction (MCF-7 cells [3]; [9]): 5%; G1 fraction (MCF-7 cells [3]; Dox 100 nM alone): about 48%; S phase fraction (MCF-7 cells [3]; Dox 100 nM alone): 8% |
| 187000 ± 13800 nM | 141000 ± 3500 nM | 210000 ± 12400 nM | about 1.5 fold | 1.4 fold | 630 ± 59.2 nM | 465 ± 45.4 nM | 1.8 fold | 17300 ± 3100 nM | 9800 ± 3100 nM | COc1cc([C@@H]2c3cc4c(cc3[C@@H](O[C@@H]3O[C@@H]5CO[C@@H](C)O[C@H]5[C@H](O)[C@H]3O)[C@H]3COC(=O)[C@H]23)OCO4)cc(OC)c1O [Etoposide] | accumulation in both G1 and G2/M | effect on cell cycle distribution after Pen-ELP-H1 pretreatment (MCF-7 cells [3]; 20 μM Pen-ELP-H1 day 1, etoposide 1 μM day 4): slightly enhanced the etoposide-induced accumulation in G1 |
